Measured values published in patent publication US20060035904A1, “Antineoplastic combinations” (Wyeth, priority 2001, published 2006).
Counter-ions that a name gives are not always drawn.

Key:
[1] = system: human pancreatic tumors; conditions: several tumors, nude mice; cited from earlier work
[2] = system: orthotopic glioma; conditions: nude mice; cited from earlier work
[3] = system: human glioblastoma cell line; conditions: in vitro; cited from earlier work
[4] = system: breast cancer lines; conditions: one of two lines studied; cited from earlier work
[5] = system: histologically diverse tumor cells; conditions: cited from earlier work
[6] = system: human tumor xenografts of diverse histological types; conditions: cited from earlier work
[7] = system: human colon (GC3) xenograft; test: human colon (GC3) mouse xenograft test procedure; type: in vivo, mice; conditions: gemcitabine on days 1, 4, 8 in cycle 1 only; CCI-779 daily x5 for 2 consecutive weeks every 21 days, 3 cycles
Method: Female CBA/CaJ mice (Jackson Laboratories, Bar Harbor, Me.), 4 weeks of age, were immune-deprived by thymectomy, followed 3 weeks later by whole-body irradiation (1200 cGy) using a ^137Cs source. Mice received 3×10^6 nucleated bone marrow cells within 6-8 h of irradiation. Tumor pieces of approximately 3 mm^3 were implanted in the space of the dorsal lateral flanks of the mice to initiate tumor growth. Tumor-bearing mice were randomized into groups of seven prior to initiating therapy. Mice bearing tumors each received drug when tumors were approximately 0.20-1 cm in diameter. Tumor size was determined at 7-day intervals using digital Vernier calipers interfaced with a computer. Tumor volumes were calculated assuming tumors to be spherical using the formula [(π/6)×d^3], where d is the mean diameter. CCI-779 was given on a schedule of 5 consecutive days for 2 weeks with this cycle repeated every 21 days for 3 cycles. […] The schedule of the other chemotherapy drug for each study was as follows: Gemcitabine on days 1, 4, 8 in cycle 1 only. […] In this test procedure, CCI-779 was given daily 5 for 2 consecutive weeks every 21 days for 3 cycles and gemcitabine given on days 1, 4, and 8 in the first cycle only.

[8] = target: mTOR (Homo sapiens, UniProt P42345+P62942); test: Western blot of p70s6 kinase serine389 phosphorylation in growth factor stimulated cells; type: cell-based
Method: Cell lines were grown in optimal basal medium supplemented with 10% fetal bovine serum and penicillin/treptomycin. For phosphorylation studies, cells were subcultured in 6-well plates. After the cells have completely attached, they were serum-starved. Treatment with mTOR inhibitors ranged from 2 to 16 hours. After drug treatment, the cells were rinsed once with PBS (phosphate buffered saline without Mg^2+ and Ca^2+) and then lysed in 150-200 μl NuPAGE LDS sample buffer per well. The lysates were briefly sonicated and then centrifuged for 15 minutes at 14000 rpm. Lysates were stored at minus −80° C. until use.
The test procedure can also be run by incubating the cells in growth medium overnight, after they have completely attached.
1) Prepare total protein samples by placing 22.5 μl of lysate per tube and then add 2.5 μl NuPAGE sample reducing agent. Heat samples at 70° C. for 10 minutes. Electrophorese using NuPAGE gels and NuPAGE SDS buffers.
2) Transfer the gel to a nitrocellulose membrane with NuPAGE transfer buffer. The membrane is blocked for 1 hour with blocking buffer (Tris buffered saline with 0.1% Tween and 5% nonfat-milk). Rinse membranes 2× with washing buffer (Tris buffered saline with 0.1% Tween).
3) Blots/membranes are incubated with the Phospho-p70 S6 Kinase (Thr^389) primary antibody (1:1000) in blocking buffer overnight at 4° C. in a rotating platform. […]

Structure (SMILES): CO[C@H]1C[C@@H]2CC[C@@H](C)[C@@](O)(O2)C(=O)C(=O)N2CCCC[C@H]2C(=O)O[C@H]([C@H](C)C[C@@H]2CC[C@@H](OC(=O)C(C)(CO)CO)[C@H](OC)C2)CC(=O)[C@H](C)/C=C(\C)[C@@H](O)[C@@H](OC)C(=O)[C@H](C)C[C@H](C)/C=C/C=C/C=C/1C [CCI-779, rapamycin 42-ester with 3-hydroxy-2-(hydroxymethyl)-2-methylpropionic acid]
- growth of human pancreatic tumors [1]: inhibited
- activity in orthotopic glioma model [2]: active
- growth factor (platelet-derived)-induced stimulation [3]: markedly suppressed
- growth of breast cancer lines in vivo [4]: inhibited
- sensitivity of tumor cell lines in vitro ([5]; CNS cancer, leukemia (T-cell), breast cancer, prostate cancer and melanoma lines): among the most sensitive
- growth of tumor cells in vitro ([5]; a number of histologically diverse tumor cells): inhibit the growth
- cell cycle effect [5]: arrested cells in the G1 phase
- sensitivity of gliomas in vivo ([6]; gliomas): particularly sensitive
- activity against human tumor xenografts ([6]; nude mice, diverse histological types): has activity

Structure (SMILES): Nc1ccn([C@@H]2O[C@H](CO)[C@@H](O)C2(F)F)c(=O)n1 [gemcitabine, 2′-deoxy-2′,2′-difluorocytidine monohydrochloride ((beta)-isomer)]
- tumor regression in the first cycle [7]: tumor regression seen in the first cycle

Structure (SMILES): CO[C@H]1C[C@@H]2CC[C@@H](C)[C@@](O)(O2)C(=O)C(=O)N2CCCC[C@H]2C(=O)O[C@H]([C@H](C)C[C@@H]2CC[C@@H](O)[C@H](OC)C2)CC(=O)[C@H](C)/C=C(\C)[C@@H](O)[C@@H](OC)C(=O)[C@H](C)C[C@H](C)/C=C/C=C/C=C/1C [rapamycin]
- phosphorylation of serine389 of p70s6 kinase [8]: completely blocks
